Experimental data reported in the NIST ThermoML archive (doi:10.1016/j.fluid.2017.10.023).

Assay: xn = mol fraction of the nth substance listed
Settings: 313.15 K; for surface tension liquid-gas: Pendant drop shape; for mass density: Liquid, Vibrating tube method

CCCCC [pentane] + C
Settings | mass density [kg/m3] | surface tension liquid-gas [mN/m]
x2 = 0.048 | 594.4 | 12
x2 = 0.101 | 581 | 10.13
x2 = 0.181 | 558.8 | 7.61
x2 = 0.263 | 533.1 | 5.37
x2 = 0.351 | 501.8 | 3.26
x2 = 0.43 | 466.3 | 1.68
x2 = 0.501 | 431.5 | 0.761
